From ChEMBL document CHEMBL3832052

Assay: clinical
Conditions: human, in vivo, po

Cc1cc(NS(=O)(=O)c2ccc(N)cc2)no1 [SULFAMETHOXAZOLE]
Tmax: 1 to 4 h
